Measurements taken from patent publication US10208046B2, “Nitrogen-containing heterocyclic compound” (Takeda Pharmaceutical Company Limited, priority 2014, dated 2019).

Assays:
[1] = target: T1, human M1 receptor (hCHRM1) (Homo sapiens, UniProt P11229); assay: Measurement of M1 receptor positive allosteric modulator (M1PAM) activity, calcium fluorescence in CHO-K1 cells; assay type: cell-based; conditions: for activity (%) at 10 μM: 10 μM test compound with acetylcholine at EC20, 100% = acetylcholine 1 μM, 0% = DMSO; for EC50: inflection point in the concentration-dependent curve, acetylcholine at EC20 (final 0.6-0.8 nM), CHO-K1 cells expressing human M1, Fluo-4, FLIPRtetra, read-out: IP value;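 for EC50: potency reported as IP value in nM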
T1 construct: expressed in transfected cells
T1 sequence (P11229 1-460): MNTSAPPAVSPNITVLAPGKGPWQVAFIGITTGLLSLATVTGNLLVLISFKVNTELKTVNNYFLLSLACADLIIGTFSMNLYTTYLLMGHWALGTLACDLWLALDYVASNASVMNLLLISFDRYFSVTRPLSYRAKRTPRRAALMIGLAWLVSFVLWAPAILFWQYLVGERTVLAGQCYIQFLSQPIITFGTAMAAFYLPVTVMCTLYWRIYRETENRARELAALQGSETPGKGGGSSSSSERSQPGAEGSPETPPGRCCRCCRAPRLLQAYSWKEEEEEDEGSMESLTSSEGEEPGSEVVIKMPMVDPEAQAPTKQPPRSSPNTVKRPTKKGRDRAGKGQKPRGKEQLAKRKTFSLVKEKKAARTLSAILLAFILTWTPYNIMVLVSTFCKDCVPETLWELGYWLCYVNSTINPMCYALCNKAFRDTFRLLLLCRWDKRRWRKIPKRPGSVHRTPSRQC
How it was run: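 CHO-K1 cells stably expressing human M1, Fluo-4 loaded, treated with compound plus acetylcholine at EC20 (final 0.6-0.8 nM); calcium fluorescence read by FLIPR over 1 min. Activity scaled to 1 μM acetylcholine (100%) and DMSO (0%); IP = inflection point of concentration-response curve.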

[2] = tested on: IP1 production in hippocampi; assay: Measurement of myo-inositol 1 phosphate (IP1) in rat hippocampi after oral administration; assay type: in vivo, male Long-Evans rats; conditions: rat hippocampus IP1/protein ratio, Vehicle group as 100%
Method: Measurement of Myo-Inositol 1 Phosphate (IP1)
Animals used were male Long-Evans rats. They were used after acclimation for at least 1 week. Test compounds were suspended in 0.5% (w/v) aqueous methylcellulose solution, and the suspension was orally administered to the rats. After a given time, lithium chloride was dissolved in saline and subcutaneously administered into the rats. After a given time, their bilateral hippocampi were isolated from the rats, and the wet weight thereof was measured. The isolated hippocampi were homogenized with HEPES buffer, followed by centrifugation. The IP1 and protein concentrations in the supernatant were measured by IP-One HTRF(R) assay kit (Cisbio Bioassays) and BCA protein assay kit (Thermo Scientific), respectively. The level of the IP1 production was expressed as the ratio of the concentration of IP1 to that of protein. The increase rate of the IP1 production was shown as a relative value when Vehicle administration group as 100%.

[3] = tested on: Scopolamine-induced memory deficits models; assay: Novel object recognition test; assay type: in vivo, male Long-Evans rats; conditions: scopolamine 0.1 mg/kg s.c., retention trial 4 hr later, mean±standard error
Method: Novel Object Recognition Test Novel object recognition test is comprised of two trials called the acquisition and the retention trials. Scopolamine-induced memory deficits models were used for the test, and animals used were male Long-Evans rats (7-week-old). On the day before the test, for acclimation, the rats were allowed to freely move about the test box (40×40×50 cm) for 10 minutes. On the test day, the rats were acclimated to the test room for about 1 hr prior to the test. The test compounds were orally administered to the rats in a single dose 2 hours before the acquisition trial. For induction of learning and memory deficits, scopolamine (0.1 mg/kg) was subcutaneously administered into the rats 30 min before the acquisition trial. For the acquisition trial, two identical objects (A1, A2) were placed in the test box. The rats were put in the test box for 3 min, and the duration exploring each object was measured. The retention trial was performed 4 hr after the acquisition trial. […] The duration for exploring each object in the acquisition trial and the retention trial was measured, and the exploration rate of novel object was calculated. The exploration rate of novel object was expressed as (the duration exploring the novel object)/[(the duration exploring the novel object)+(the duration exploring the familiar object)]×100(%) at mean±standard error.

| SMILES | activity (%) at 10 μM [1] | EC50 [1] | increase rate (% of Vehicle) ([2]; 30 mg/kg oral) | exploration rate of novel object (%) ([3]; 3 mg/kg oral single dose 2 hours before acquisition trial) | exploration rate of novel object (%) ([3]; 10 mg/kg oral single dose 2 hours before acquisition trial) | increase rate (% of Vehicle) ([2]; 10 mg/kg oral) | increase rate (% of Vehicle) ([2]; 3 mg/kg oral) |
| --- | --- | --- | --- | --- | --- | --- | --- |
| Cc1nn(C)cc1-c1ccc(CN2Cc3ccnc(OCC(F)F)c3C2=O)cc1 [Example 6, 4-(2,2-difluoroethoxy)-2-(4-(1,3-dimethyl-1H-pyrazol-4-yl)benzyl)-1,2-dihydro-3H-pyrrolo[3,4-c]pyridin-3-one] | 109% | 70 nM | 38 % of Vehicle | 58.75±2.01% | 52.48±2.28% | – | – |
| Cc1nn(C)cc1-c1ccc(CN2Cc3ncnc(OCC(C)(F)F)c3C2=O)cc1 [Example 22, 4-(2,2-difluoropropoxy)-6-(4-(1,3-dimethyl-1H-pyrazol-4-yl)benzyl)-6,7-dihydro-5H-pyrrolo[3,4-d]pyrimidin-5-one] | 100% | 28 nM | – | – | – | 71 % of Vehicle | – |
| Cc1nn(C)cc1-c1ccc(CN2Cc3ncnc(OCC(C)(F)F)c3C2=O)c(F)c1 [Example 23, 4-(2,2-difluoropropoxy)-6-(4-(1,3-dimethyl-1H-pyrazol-4-yl)-2-fluorobenzyl)-6,7-dihydro-5H-pyrrolo[3,4-d]pyrimidin-5-one] | 94% | 6 nM | – | – | – | – | 27 % of Vehicle |
| Cn1cc(-c2ccc(CN3Cc4ccnc(OCC(C)(F)F)c4C3=O)cc2)nn1 [Example 107, 4-(2,2-difluoropropoxy)-2-(4-(1-methyl-1H-1,2,3-triazol-4-yl)benzyl)-1,2-dihydro-3H-pyrrolo[3,4-c]pyridin-3-one] | 92% | 72 nM | – | – | – | – | – |
| Cc1nn(C)cc1-c1ccc(CN2Cc3ccnc(OCC(C)(F)F)c3C2=O)c(F)c1 [Example 108, 4-(2,2-difluoropropoxy)-2-(4-(1,3-dimethyl-1H-pyrazol-4-yl)-2-fluorobenzyl)-1,2-dihydro-3H-pyrrolo[3,4-c]pyridin-3-one] | 94% | 16 nM | – | – | – | – | – |
| Cc1nn(C)cc1-c1ccc(CN2Cc3ccnc(OCC(F)F)c3C2=O)c(F)c1 [Example 112, 4-(2,2-difluoroethoxy)-2-(4-(1,3-dimethyl-1H-pyrazol-4-yl)-2-fluorobenzyl)-1,2-dihydro-3H-pyrrolo[3,4-c]pyridin-3-one] | 101% | 41 nM | – | – | – | – | – |

Now from value to compound, other results behind:

| activity (%) at 10 μM [1] | EC50 [1] | SMILES | increase rate (% of Vehicle) ([2]; 30 mg/kg oral) | exploration rate of novel object (%) ([3]; 3 mg/kg oral single dose 2 hours before acquisition trial) | exploration rate of novel object (%) ([3]; 10 mg/kg oral single dose 2 hours before acquisition trial) | increase rate (% of Vehicle) ([2]; 10 mg/kg oral) | increase rate (% of Vehicle) ([2]; 3 mg/kg oral) |
| --- | --- | --- | --- | --- | --- | --- | --- |
| 90% | 29 nM | Cn1cc(-c2ccc(CN3Cc4ccnc(OCC(C)(F)F)c4C3=O)c(F)c2)nn1 [Example 106, 4-(2,2-difluoropropoxy)-2-(2-fluoro-4-(1-methyl-1H-1,2,3-triazol-4-yl)benzyl)-1,2-dihydro-3H-pyrrolo[3,4-c]pyridin-3-one] | – | – | – | – | – |
| 102% | 56 nM | Cn1cc(-c2ccc(CN3Cc4ccnc(OCC(F)(F)F)c4C3=O)c(F)c2)nn1 [Example 114, 2-(2-fluoro-4-(1-methyl-1H-1,2,3-triazol-4-yl)benzyl)-4-(2,2,2-trifluoroethoxy)-1,2-dihydro-3H-pyrrolo[3,4-c]pyridin-3-one] | – | – | – | – | – |
| 98% | 43 nM | Cn1cc(-c2ccc(CN3Cc4ccnc(OCC(F)F)c4C3=O)c(F)c2)nn1 [Example 115, 4-(2,2-difluoroethoxy)-2-(2-fluoro-4-(1-methyl-1H-1,2,3-triazol-4-yl)benzyl)-1,2-dihydro-3H-pyrrolo[3,4-c]pyridin-3-one] | – | – | – | – | – |
